# Target: Rho kinase (fused protein of bovine Rho kinase catalyst region and glutathione S-transferase) (Bos taurus, UniProt Q28021)
# Assay: Rho kinase inhibitory activity (phosphorylation of S6 231–239 substrate, γ32P-ATP)
# Assay type: biochemical
# Conditions: concentration inhibiting substrate phosphorylation by 50%
# Description: This permits the substrate to be labeled with the radioisotope.
# Thereafter, the substrate was adsorbed to a filter paper. ATP was washed away with a phosphoric acid solution, and the amount of the phosphorylated substrate was then measured with a liquid scintillation counter.
# Rho kinase (fused protein of bovine Rho kinase catalyst region and glutathione S-transferase), sequence (Q28021 92-354 limits assumed): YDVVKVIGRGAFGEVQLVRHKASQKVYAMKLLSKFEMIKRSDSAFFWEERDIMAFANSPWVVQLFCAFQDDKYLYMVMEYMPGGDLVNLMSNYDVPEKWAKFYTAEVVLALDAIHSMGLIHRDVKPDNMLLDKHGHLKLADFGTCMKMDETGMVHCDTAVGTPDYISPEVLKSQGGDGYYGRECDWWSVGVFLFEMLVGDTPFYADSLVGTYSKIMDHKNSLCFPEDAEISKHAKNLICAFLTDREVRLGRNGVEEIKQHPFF
row,SMILES,IC50
1,"O=C(NCc1c(F)cc(F)cc1F)Nc1ccc2[nH]ncc2c1 [Example 103, N-(1H-5-Indazolyl)-N′-(2,4,6-trifluorobenzyl)urea]",260 nM
2,"O=[N+]([O-])c1cccc(CN2CCC(Nc3ccc4[nH]ncc4c3)C2)c1 (stereo not drawn) [Example 158, N-(1H-5-Indazolyl)-N-[1-(3-nitrobenzyl)tetrahydro-1H-3-pyrrolyl]amine]",5 nM
3,"O=C(CCc1ccc2c(c1)OCO2)Nc1ccc2[nH]ncc2c1 [Example 52, N1-(1H-5-Indazolyl)-3-(1,3-benzodioxol-5-yl)propaneamide]",230 nM
4,"O=C(CSc1c(Cl)cccc1Cl)Nc1ccncc1 [Example 17, N1-(4-Pyridyl)-2-[(2,6-dichlorophenyl)-sulfanyl]acetamide]",9600 nM
5,"O=C(COc1c(Br)cc(F)cc1Br)Nc1ccncc1 [Example 2, N1-(4-Pyridyl)-2-(2,6-dibromo-4-fluorophenoxy)acetamide]",2210 nM
6,"O=C(Nc1ccncc1)Nc1c(Cl)cc(Cl)cc1Cl [Example 1, N-(4-Pyridyl)-N′-(2,4,6-trichlorophenyl)urea]",200 nM
7,"O=C(NCc1ccccc1[N+](=O)[O-])Nc1ccc2c(c1)C(=O)NC2=O [Example 86, N-(1,3-Dioxo-2,3-dihydro-1H-5-isoindolyl)-N′-(2-nitrobenzyl)urea]",900 nM
8,"O=C(Nc1cccc([N+](=O)[O-])c1)Nc1ccc2c(c1)C(=O)NC2=O [Example 78, N-(1,3-Dioxo-2,3-dihydro-1H-5-isoindolyl)-N′-(3-nitrophenyl)urea]",10400 nM
9,"O=[N+]([O-])c1cccc(CN2CCC(Nc3ccc4[nH]ncc4c3)CC2)c1 [Example 140, N-(1H-5-Indazolyl)-N-[1-(3-nitrobenzyl)-4-piperidyl]amine]",465 nM
10,"O=C(NCc1c(Cl)cccc1Cl)Nc1ccc2c(c1)C(=O)NC2=O [Example 68, N1-(2,6-Dichlorobenzyl)-N′-(1,3-dioxo-2,3-dihydro-1H-5-isoindolyl)urea]",110 nM
11,"O=C(COc1c(Cl)cc(F)cc1Cl)Nc1ncnc2[nH]ncc12 [Example 32, N1-(1H-Pyrazolo[3,4-d]pyrimidin-4-yl)-2-(2,6-dichloro-4-fluorophenoxy)acetamide]",1370 nM
12,"O=C(/C=C/c1ccc(O)c(O)c1)Nc1ccc2[nH]ncc2c1 [Example 38, N1-(1H-5-Indazolyl)-(E)-3-(3,4-dihydroxyphenyl)-2-propeneamide]",107 nM
13,Brc1cccc(CN2CCC(Nc3ccc4[nH]ncc4c3)CC2)c1 [Example 23],124 nM
14,"COc1ccc(CN2CCC(Nc3ccc4[nH]ncc4c3)CC2)cc1 [Example 138, N-(1H-5-Indazolyl)-N-[1-(4-methoxybenzyl)-4-piperidyl]amine]",355 nM
15,"O=C(/C=C/c1c(Cl)cccc1Cl)Nc1ccncc1 [Example 7, N1-(4-Pyridyl)-(E)-3-(2,6-dichlorophenyl)-2-propeneamide]",2540 nM
16,"Clc1ccccc1CN1CCC(Nc2ccc3[nH]ncc3c2)CC1 [Example 134, N-[1-(2-Chlorobenzyl)-4-piperidyl]-N-(1H-5-indazolyl)amine]",436 nM
17,"O=C(/C=C/c1cccc(O)c1)Nc1ccc2[nH]ncc2c1 [Example 36, N1-(1H-5-Indazolyl)-(E)-3-(3-hydroxyphenyl)-2-propeneamide]",600 nM
18,"CCc1ccccc1CN1CCC(Nc2ccc3[nH]ncc3c2)CC1 [Example 121, N-[1-(2-Ethylbenzyl)-4-piperidyl]-N-(1H-5-indazolyl)amine]",513 nM
19,"O=C(COc1c(F)cc(F)cc1F)Nc1ccncc1 [Example 28, N1-(4-Pyridyl)-2-(2,4,6-trifluorophenoxy)acetamide]",8110 nM
20,"O=C(Nc1ccncc1)Nc1c(F)cccc1F [Example 8, N-(2,6-Difluorophenyl)-N′-(4-pyridyl)urea]",2000 nM

row,SMILES,IC50
1,"CCN1CCC(Nc2ccc3[nH]ncc3c2)CC1 [Example 125, N-(1-Ethyl-4-piperidyl)-N-(1H-5-indazolyl)-amine]",747 nM
2,"Clc1ccc(CN2CCC(Nc3ccc4[nH]ncc4c3)CC2)cc1Cl [Example 114, N-[1-(3,4-Dichlorobenzyl)-4-piperidyl]-N-(1H-5-indazolyl)amine]",329 nM
3,"O=C(NCC1CCCCC1)Nc1ccncc1 [Example 75, N-Cyclohexylmethyl-N′-(4-pyridyl)urea]",6030 nM
4,"O=C(Nc1ccncc1)Nc1c(Cl)cc(C(F)(F)F)cc1Cl [Example 63, N-[2,6-Dichloro-4-(trifluoromethyl)phenyl]-N′-(4-pyridyl)urea]",2500 nM
5,"O=C(Nc1ccncc1)Nc1ccc(F)cc1C(F)(F)F [Example 59, N-[4-Fluoro-2-(trifluoromethyl)phenyl]-N′-(4-pyridyl)urea]",7270 nM
6,"O=C(NCc1cccc2ccccc12)Nc1ccc2[nH]ncc2c1 [Example 107, N-(1H-5-Indazolyl)-N′-(1-naphthylmethyl)urea]",470 nM
7,"O=C(NCc1c(Cl)cccc1Cl)Nc1cc2c(cc1Cl)C(=O)NC2=O [Example 81, N-(6-Chloro-1,3-dioxo-2,3-dihydro-1H-5-isoindolyl)-N′-(2,6-dichlorobenzyl)urea]",54 nM
8,"O=C(NCc1c(F)cccc1C(F)(F)F)Nc1ccncc1 [Example 64, N-[2-Fluoro-6-(trifluoromethyl)benzyl]-N′-(4-pyridyl)urea]",2190 nM
9,"COc1cc(CN2CCCC(Nc3ccc4[nH]ncc4c3)C2)cc(OC)c1 (stereo not drawn) [Example 170, N-[1-(3,5-Dimethoxybenzyl)-3-piperidyl]-N-(1H-5-indazolyl)amine]",80 nM
10,"c1ccc(Oc2cccc(CN3CCC(Nc4ccc5[nH]ncc5c4)CC3)c2)cc1 [Example 123, N-(1H-5-Indazolyl)-N-[1-(3-phenoxybenzyl)-4-piperidyl]amine]",220 nM
11,"O=C(NCc1ccc(Cl)cc1Cl)Nc1ccc2[nH]ncc2c1 [Example 100, N-(2,4-Dichlorobenzyl)-N′-(1H-5-indazolyl)urea]",220 nM
12,"Brc1ccc(CN2CCC(Nc3ccc4[nH]ncc4c3)C2)cc1 (stereo not drawn) [Example 155, N-[1-(4-Bromobenzyl)tetrahydro-1H-3-pyrrolyl]-N-(1H-5-indazolyl)amine]",24 nM
13,"O=C(Nc1ccncc1)Nc1c[nH]c2ccccc12 [Example 66, N-(1H-3-Indolyl)-N′-(4-pyridyl)urea]",6570 nM
14,"c1cc(CN2CCC(Nc3ccc4[nH]ncc4c3)CC2)ccn1 [Example 133, N-(1H-5-Indazolyl)-N-[1-(4-pyridylmethyl)-4-piperidyl]amine]",680 nM
15,"O=C(NCc1c(Cl)ccc(Cl)c1Cl)Nc1ccc2c(c1)C(=O)NC2=O [Example 89, N-(1,3-Dioxo-2,3-dihydro-1H-5-isoindolyl)-N′-(2,3,6-trichlorobenzyl)urea]",300 nM
16,"FC(F)(F)c1ccc(CN2CCC(Nc3ccc4[nH]ncc4c3)CC2)cc1 [Example 118, N-(1H-5-Indazolyl)-N-{1-[4-(trifluoromethyl)benzyl]-4-piperidyl}amine]",275 nM
17,"CC(=O)Oc1ccc(CN2CCC(Nc3ccc4[nH]ncc4c3)CC2)cc1 [Example 149, 4-{[4-(1H-5-Indazolylamino)piperidino]methyl}phenyl acetate]",204 nM
18,"O=C(NCc1c(Cl)cccc1Cl)Nc1ccc2[nH]ncc2c1 [Example 106, N-(2,6-Dichlorobenzyl)-N′-(1H-5-indazolyl)urea]",1400 nM
19,"O=C(Nc1ccncc1)NC1CCCCC1 [Example 19, N-Cyclohexyl-N′-(4-pyridyl)urea]",7260 nM
